#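 Results reflect a 48-hour exposure of cells in 96-well plates to compound at five concentrations. GI50 is the concentration that inhibits growth by half.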 The source made the active and inactive calls. Rule as the data show it: active = GI50 up to about 1.1 µM and inactive = higher.
# Columns and labels:
# Test in all cases: NCI tumour cell line growth inhibition, 48 h
# 786-0 = tested on: 786-0
# A498 = tested on: A498
# A549 = tested on: A549
# ACHN = tested on: ACHN
# CAKI-1 = tested on: CAKI-1
# CCRF-CEM = tested on: CCRF-CEM
# COLO 205 = tested on: COLO 205
# DLD-1 = tested on: DLD-1
# DMS-114 = tested on: DMS-114
# DMS-273 = tested on: DMS-273
# EKVX = tested on: EKVX
# HCT-116 = tested on: HCT-116
# HCT-15 = tested on: HCT-15
# HL-60 = tested on: HL-60
# HOP-18 = tested on: HOP-18
# HOP-62 = tested on: HOP-62
# HOP-92 = tested on: HOP-92
# HT-29 = tested on: HT-29
# IGROV-1 = tested on: IGROV-1
# K562 = tested on: K562
# KM-20L2 = tested on: KM-20L2
# KM12 = tested on: KM12
# LOX IMVI = tested on: LOX IMVI
# LXFL 529 = tested on: LXFL 529
# M14 = tested on: M14
# M19-MEL = tested on: M19-MEL
# MOLT-4 = tested on: MOLT-4
# Malme-3M = tested on: Malme-3M
# NCI-H226 = tested on: NCI-H226
# NCI-H23 = tested on: NCI-H23
# NCI-H460 = tested on: NCI-H460
# NCI-H522 = tested on: NCI-H522
# OVCAR-3 = tested on: OVCAR-3
# OVCAR-4 = tested on: OVCAR-4
# OVCAR-5 = tested on: OVCAR-5
# OVCAR-8 = tested on: OVCAR-8
# RXF 393 = tested on: RXF 393
# RXF 631 = tested on: RXF 631
# SF-268 = tested on: SF-268
# SF-295 = tested on: SF-295
# SF-539 = tested on: SF-539
# SK-MEL-28 = tested on: SK-MEL-28
# SK-MEL-2 = tested on: SK-MEL-2
# SK-MEL-5 = tested on: SK-MEL-5
# SK-OV-3 = tested on: SK-OV-3
# SN12C = tested on: SN12C
# SNB-19 = tested on: SNB-19
# SNB-75 = tested on: SNB-75
# SR = tested on: SR
# SW-620 = tested on: SW-620
# TK-10 = tested on: TK-10
# U-251 = tested on: U-251
# UACC-257 = tested on: UACC-257
# UACC-62 = tested on: UACC-62
# UO-31 = tested on: UO-31
# XF498 = tested on: XF498
# HCC 2998 = tested on: HCC 2998
# RPMI-8226 = tested on: RPMI-8226
# SNB-78 = tested on: SNB-78
smiles,measurement,setting,value
CCOC(=O)C(=Cc1cccnc1C)C(=O)OCC,GI50,786-0,8.51 µM (inactive)
same,GI50,A498,10.9 µM (inactive)
same,GI50,A549,15.6 µM (inactive)
same,GI50,ACHN,11.9 µM (inactive)
same,GI50,CAKI-1,6.21 µM (inactive)
same,GI50,CCRF-CEM,3.93 µM (inactive)
same,GI50,COLO 205,5.6 µM (inactive)
same,GI50,DLD-1,9.27 µM (inactive)
same,GI50,DMS-114,13.7 µM (inactive)
same,GI50,DMS-273,3.82 µM (inactive)
same,GI50,EKVX,16.4 µM (inactive)
same,GI50,HCT-116,5.01 µM (inactive)
same,GI50,HCT-15,3.69 µM
same,GI50,HL-60,3.78 µM (inactive)
same,GI50,HOP-18,9.68 µM (inactive)
same,GI50,HOP-62,18.8 µM (inactive)
same,GI50,HOP-92,7.01 µM (inactive)
same,GI50,HT-29,5.15 µM (inactive)
same,GI50,IGROV-1,7.6 µM (inactive)
same,GI50,K562,3.39 µM (inactive)
same,GI50,KM-20L2,3.6 µM (inactive)
same,GI50,KM12,3.1 µM (inactive)
same,GI50,LOX IMVI,3.71 µM (inactive)
same,GI50,LXFL 529,7.57 µM (inactive)
same,GI50,M14,11.2 µM (inactive)
same,GI50,M19-MEL,7.91 µM (inactive)
same,GI50,MOLT-4,12.6 µM (inactive)
same,GI50,Malme-3M,12.2 µM (inactive)
same,GI50,NCI-H226,31.8 µM (inactive)
same,GI50,NCI-H23,4.09 µM (inactive)
same,GI50,NCI-H460,15.6 µM (inactive)
same,GI50,NCI-H522,3.89 µM (inactive)
same,GI50,OVCAR-3,2.67 µM (inactive)
same,GI50,OVCAR-4,11 µM (inactive)
same,GI50,OVCAR-5,17.9 µM (inactive)
same,GI50,OVCAR-8,5.18 µM (inactive)
same,GI50,RXF 393,4.35 µM (inactive)
same,GI50,RXF 631,11.9 µM (inactive)
same,GI50,SF-268,9.89 µM (inactive)
same,GI50,SF-295,10.6 µM (inactive)
same,GI50,SF-539,6.15 µM (inactive)
same,GI50,SK-MEL-28,17.5 µM (inactive)
same,GI50,SK-MEL-2,4.08 µM (inactive)
same,GI50,SK-MEL-5,11.8 µM (inactive)
same,GI50,SK-OV-3,11.3 µM (inactive)
same,GI50,SN12C,4.43 µM (inactive)
same,GI50,SNB-19,11.3 µM (inactive)
same,GI50,SNB-75,3.13 µM (inactive)
same,GI50,SR,3.61 µM (inactive)
same,GI50,SW-620,5.32 µM (inactive)
same,GI50,TK-10,12.9 µM (inactive)
same,GI50,U-251,6.18 µM (inactive)
same,GI50,UACC-257,8.09 µM (inactive)
same,GI50,UACC-62,6.82 µM (inactive)
same,GI50,UO-31,5.16 µM (inactive)
same,GI50,XF498,12.6 µM (inactive)
Cn1c(=O)nc2n(-c3ccc(Cl)cc3)c(-c3ccccc3)c(-c3ccccc3)nc-2c1=O,GI50,786-0,29.8 µM (inactive)
same,GI50,A498,49.3 µM (inactive)
same,GI50,A549,31.1 µM (inactive)
same,GI50,ACHN,19.9 µM (inactive)
same,GI50,CAKI-1,24.8 µM (inactive)
same,GI50,CCRF-CEM,21.9 µM (inactive)
same,GI50,COLO 205,33 µM (inactive)
same,GI50,DLD-1,34 µM (inactive)
same,GI50,DMS-114,28.1 µM (inactive)
same,GI50,DMS-273,22.6 µM (inactive)
same,GI50,EKVX,47 µM (inactive)
same,GI50,HCC 2998,47.2 µM (inactive)
same,GI50,HCT-15,22.5 µM
same,GI50,HL-60,18.3 µM (inactive)
same,GI50,HOP-18,57.9 µM (inactive)
same,GI50,HOP-62,25.3 µM (inactive)
same,GI50,HOP-92,16.5 µM (inactive)
same,GI50,HT-29,32.1 µM (inactive)
same,GI50,IGROV-1,30.1 µM (inactive)
same,GI50,K562,25.6 µM (inactive)
same,GI50,KM-20L2,30.2 µM (inactive)
same,GI50,KM12,23.8 µM (inactive)
same,GI50,LXFL 529,27.7 µM (inactive)
same,GI50,M14,20 µM (inactive)
same,GI50,MOLT-4,16.5 µM (inactive)
same,GI50,Malme-3M,28.4 µM (inactive)
same,GI50,NCI-H226,19.2 µM (inactive)
same,GI50,NCI-H23,66.2 µM (inactive)
same,GI50,NCI-H460,24.7 µM (inactive)
same,GI50,NCI-H522,36.7 µM (inactive)
same,GI50,OVCAR-3,21.7 µM (inactive)
same,GI50,OVCAR-4,29.5 µM (inactive)
same,GI50,OVCAR-5,66.8 µM (inactive)
same,GI50,OVCAR-8,37.5 µM (inactive)
same,GI50,RPMI-8226,22.1 µM (inactive)
same,GI50,RXF 631,28.3 µM (inactive)
same,GI50,SF-268,23.6 µM (inactive)
same,GI50,SF-295,30.1 µM (inactive)
same,GI50,SF-539,23 µM (inactive)
same,GI50,SK-MEL-28,25.5 µM (inactive)
same,GI50,SK-MEL-2,23.6 µM (inactive)
same,GI50,SK-MEL-5,20.1 µM (inactive)
same,GI50,SK-OV-3,40.3 µM (inactive)
same,GI50,SN12C,33.6 µM (inactive)
same,GI50,SNB-19,32.1 µM (inactive)
same,GI50,SNB-75,23.2 µM (inactive)
same,GI50,SNB-78,49.2 µM (inactive)
same,GI50,SW-620,40.7 µM (inactive)
same,GI50,TK-10,51.2 µM (inactive)
same,GI50,U-251,27.5 µM (inactive)
same,GI50,UACC-257,24.3 µM (inactive)
same,GI50,UACC-62,14.5 µM (inactive)
same,GI50,UO-31,18.4 µM (inactive)
same,GI50,XF498,12.9 µM (inactive)
